Structures can show the parent of a compound that is named as a salt.
Columns and labels:
[1] = system: killer activity of CAR-T cells; assay: Killer activity of CAR-T cells (CAR-T cells, target cells and CD14^+ cells, luciferase); assay type: cell-based, human; conditions: 2 days
Source text: FMC63 scFv, the hinge, transmembrane and cytoplasmic domains of CD28 and the cytoplasmic domain of CD3-ζ were used to construct anti-CD19 CAR on the basis of the method of Kochenderfer, et al.^15). The sequence was obtained from GenBank (HM852952) and an IDT codon optimization tool (http://sg.igtdna.com/CodonOpt) was used to remove BamHI recognition sequences within FMC63. The optimized FMC63-28z sequence was chemically synthesized and amplified by polymerase chain reaction (PCR) with the following primer set.
The PCR product was inserted into the multicloning site (EcoRI and BamHI) of lentivirus plasmid CSII-EF-MCS-2A-eGFP by using an In-Fusion HD cloning kit to obtain CSII-EF-FMC63-28z-2A-eGFP. To prepare a lentivirus vector, CSII-EF-FMC63-28z-2A-eGFP and a packaging plasmid (pMDLg/p.RRE, pRSV-rev and pMD.G) were co-transfected into Lenti-X293T cells. The prepared lentivirus vector was infected into peripheral blood mononuclear cells stimulated with anti-CD3 antibody, anti-CD28 antibody and IL-2, followed by FACS sorting to obtain a CD3-positive and eGFP-positive fraction as CAR-T cells.
On the basis of the method of Kochenderfer, et al.^15), the open reading frame of human CD19 was synthesized and amplified by PCR with the following primers. […]
Subsequently, luciferase activity was determined by detection of emission intensity with an EnSpire 2300.

[2] = system: MCP-1 production from CD14^+ cells; assay: LPS stimulation-induced MCP-1 production in CD14^+ cells; assay type: cell-based; conditions: Homo sapiens, 72 h, LPS 3 ng/mL, 3 days
Description: (§1) Cryopreserved PBMCs were quickly thawed in a 37° C. thermostat and added to a tube containing medium. After centrifugation (at room temperature at 300 g for 10 minutes) to remove the supernatant, the cells were suspended again in the medium, followed by counting the number of viable cells. The cell suspension was centrifuged (at room temperature at 300 g for 10 minutes) to remove the supernatant, followed by addition of MACS Buffer to suspend the cells, to which Human CD14 MicroBeads were further added. After being allowed to stand on ice for 15 minutes, the cell suspension was diluted with MACS Buffer and centrifuged (at room temperature at 300 g for 10 minutes) to remove the supernatant.
MACS Buffer was added to the tube, and the cells were suspended and then applied to a separatory column to separate CD14^+ cells. The CD14^+ cell fraction was diluted with the medium and then centrifuged (at room temperature at 300 g for 10 minutes). The supernatant was removed and the cells were suspended in the medium (1 mL), followed by counting the number of viable cells. The cell suspension was adjusted with the medium to 2.4×10^5 or 3×10^5 cells/mL and seeded in a 96-well plate (2.4×10^4 cells/well), which was then allowed to stand in a CO2 incubator for 1 to 2 hours.
The collected culture supernatants were quantified for MCP-1 using Human CCL2/MCP-1 DuoSet ELISA.

[3] = system: IL-1β production in CD14^+ cells; assay: LPS stimulation-induced IL-1β production in CD14^+ cells; assay type: cell-based, human; conditions: for IC50: Homo sapiens, 72 h, LPS 500 ng/mL, 3 days
Description: as §1, with “supernatant. MACS Buffer was added to the tube, and the cells were suspended and then applied to a separatory column to separate CD14^+ cells. The CD14^+ cell fraction was diluted with the medium and then centrifuged (at room temperature at 300 g for 10 minutes). The supernatant was removed and the cells were suspended in the medium (1 mL), followed by counting the number of viable cells. The cell suspension was adjusted with the medium to 2.4×10^5 or 3×10^5 cells/mL and seeded in a 96-well plate (2.4×10^4 cells/well), which was then allowed to stand in a CO2 incubator for 1 to 2 hours.” for “supernatant.”
The culture supernatants collected in 1.2.10 were quantified for IL-1β using Human IL-1β DuoSet ELISA.

[4] = system: IFN-γ production in CD4^+ T cell-depleted PBMCs; assay: T-cell stimulation bead- and LPS stimulation-induced CRS toxicity evaluation system in CD4^+ T cell-depleted PBMCs: IFN-γ; assay type: cell-based; conditions: Homo sapiens, 72 h, CD3/CD28 + LPS, 3 days
Description: Cryopreserved human PBMCs were quickly thawed in a 37° C. thermostat and added to a tube containing medium. After centrifugation (at room temperature at 300 g for 10 minutes) to remove the supernatant, the cells were suspended again in the medium (10 mL), followed by counting the number of viable cells. The remainder of the cell suspension was centrifuged (at room temperature at 300 g for 10 minutes) to remove the supernatant, followed by addition of MACS Buffer in a volume of 80 μL and Human CD4 MicroBeads in a volume of 20 μL per 1×10^7 cells to suspend the cells. After being allowed to stand on ice for 15 minutes, the cell suspension was diluted with MACS Buffer (2 mL) and centrifuged (at room temperature at 300 g for 10 minutes) to remove the supernatant. MACS Buffer (500 μL) was added to the tube, and the cells were suspended and then applied to a separatory column to separate CD4^− cells (a pass-through fraction of CD4^+ cells). The CD4^− cell fraction was diluted to 15 mL with the medium and then centrifuged (at room temperature at 300 g for 10 minutes) to remove the supernatant, and the cells were then suspended again in the medium (1 mL), followed by counting the number of viable cells. […]
The collected culture supernatants were quantified for IFN-γ and IL-6 using Human IFN-γ DuoSet ELISA and Human IL-6 DuoSet ELISA.

Compound | effect on the killer activity of CAR-T cells [1] | IC50 [2] | IC50 [3] | suppressive effect on IL-1β production ([3]; LPS) | IC50 [4]
C[C@]12C=CC(=O)C=C1CC[C@@H]1[C@@H]2[C@@H](O)C[C@@]2(C)[C@H]1CC[C@]2(O)C(=O)CO [PSL, Prednisolone] | suppressive effect on the killer activity of CAR-T cells in a concentration-dependent manner | 6600 nM | > 30000 nM | no suppressive effect | 42 nM
CCOC(=O)[C@H](Cc1ccccc1)NC(=O)c1cc(Cl)c(OCCN2CCN(C)CC2)c(Cl)c1O [JTE-607, (−)-ethyl N-{3,5-dichloro-2-hydroxy-4-[2-(4-methylpiperazin-1-yl)ethoxy]benzoyl}-L-phenylalaninate dihydrochloride] | did not affect | 21.3 nM | 3.45 nM | – | 80.9 nM

Source: patent US11744830B2, “Ameliorative agent for cytokine release syndrome and so on” (TORII PHARMACEUTICAL CO., LTD., priority 2018, dated 2023)
